In assay [1] the target is T1, Endoribonuclease toxin MazF (Escherichia coli K-12, UniProt P0AE70).
T1 sequence (P0AE70 whole entry): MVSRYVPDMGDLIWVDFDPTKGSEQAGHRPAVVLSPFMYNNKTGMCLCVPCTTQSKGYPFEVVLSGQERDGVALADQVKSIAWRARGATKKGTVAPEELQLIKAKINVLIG
Briefly: substrate-only fluorescence increase artefacts – biochemical, single-stranded RNase substrate, counter-screen for MazEF activator project, dose response (AID 588502). The assay is classed as functional. A general note: Counterscreens check selectivity or assay interference.

The target of assay [2] is Peroxisome proliferator-activated receptor gamma/Nuclear receptor corepressor 2 (Homo sapiens, UniProt P37231+Q9Y618). The assay is classed as functional.
The target of a further assay is T2, Streptokinase A (Streptococcus pyogenes serotype M1, UniProt P10520).
T2 sequence (P10520 whole entry): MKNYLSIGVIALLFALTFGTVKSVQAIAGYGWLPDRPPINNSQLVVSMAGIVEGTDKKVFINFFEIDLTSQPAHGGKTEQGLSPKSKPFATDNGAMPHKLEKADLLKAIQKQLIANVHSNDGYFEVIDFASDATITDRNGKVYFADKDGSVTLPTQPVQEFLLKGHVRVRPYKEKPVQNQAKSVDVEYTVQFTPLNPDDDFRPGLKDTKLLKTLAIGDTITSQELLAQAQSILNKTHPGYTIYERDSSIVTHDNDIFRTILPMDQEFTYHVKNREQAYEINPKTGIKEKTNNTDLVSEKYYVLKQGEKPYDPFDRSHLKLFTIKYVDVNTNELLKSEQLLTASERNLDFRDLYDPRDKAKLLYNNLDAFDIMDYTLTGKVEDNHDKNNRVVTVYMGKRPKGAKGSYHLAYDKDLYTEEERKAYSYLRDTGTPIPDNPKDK
The assay is described as follows: viability-normalized secreted streptokinase activity reduction – plasminogen activation absorbance, OD405, dose response (AID 1914).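 Note: secreted streptokinase activity via plasminogen activation per viability signal from cell pellet.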 The assay is classed as functional, Streptococcus pyogenes M1 GAS.

A further assay deals with BJ. Briefly: BJ-TERT fibroblast viability loss – cell-based, RAS-independent, luminescence, dose response (AID 1933). The assay is classed as functional. As to conditions: Homo sapiens.
Assay [3] addresses Photoreceptor-specific nuclear receptor (Homo sapiens, UniProt Q9Y5X4). The assay is classed as functional.
A short description of assay [4]: viability of PTEN-deleted HCT116 cells – cell-based, HCT116 PTEN knockout, dose response (AID 1047).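 Note: HCT116 colon tumor cells with PTEN knocked out; cells exposed to compound for 60 hours before readout; potency for loss of cell viability measured by luminescence.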 The assay is classed as functional.
The target in assay [5] is Ras and Rab interactor 1/Tyrosine-protein kinase ABL1 (Homo sapiens, UniProt P00519+Q13671). The assay is classed as functional.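 Note: biochemical TR-FRET dose-response test measuring inhibition of binding between Rin1 and Abl proteins.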
Ras and Rab interactor 1/Tyrosine-protein kinase ABL1, sequence (P00519 whole entry): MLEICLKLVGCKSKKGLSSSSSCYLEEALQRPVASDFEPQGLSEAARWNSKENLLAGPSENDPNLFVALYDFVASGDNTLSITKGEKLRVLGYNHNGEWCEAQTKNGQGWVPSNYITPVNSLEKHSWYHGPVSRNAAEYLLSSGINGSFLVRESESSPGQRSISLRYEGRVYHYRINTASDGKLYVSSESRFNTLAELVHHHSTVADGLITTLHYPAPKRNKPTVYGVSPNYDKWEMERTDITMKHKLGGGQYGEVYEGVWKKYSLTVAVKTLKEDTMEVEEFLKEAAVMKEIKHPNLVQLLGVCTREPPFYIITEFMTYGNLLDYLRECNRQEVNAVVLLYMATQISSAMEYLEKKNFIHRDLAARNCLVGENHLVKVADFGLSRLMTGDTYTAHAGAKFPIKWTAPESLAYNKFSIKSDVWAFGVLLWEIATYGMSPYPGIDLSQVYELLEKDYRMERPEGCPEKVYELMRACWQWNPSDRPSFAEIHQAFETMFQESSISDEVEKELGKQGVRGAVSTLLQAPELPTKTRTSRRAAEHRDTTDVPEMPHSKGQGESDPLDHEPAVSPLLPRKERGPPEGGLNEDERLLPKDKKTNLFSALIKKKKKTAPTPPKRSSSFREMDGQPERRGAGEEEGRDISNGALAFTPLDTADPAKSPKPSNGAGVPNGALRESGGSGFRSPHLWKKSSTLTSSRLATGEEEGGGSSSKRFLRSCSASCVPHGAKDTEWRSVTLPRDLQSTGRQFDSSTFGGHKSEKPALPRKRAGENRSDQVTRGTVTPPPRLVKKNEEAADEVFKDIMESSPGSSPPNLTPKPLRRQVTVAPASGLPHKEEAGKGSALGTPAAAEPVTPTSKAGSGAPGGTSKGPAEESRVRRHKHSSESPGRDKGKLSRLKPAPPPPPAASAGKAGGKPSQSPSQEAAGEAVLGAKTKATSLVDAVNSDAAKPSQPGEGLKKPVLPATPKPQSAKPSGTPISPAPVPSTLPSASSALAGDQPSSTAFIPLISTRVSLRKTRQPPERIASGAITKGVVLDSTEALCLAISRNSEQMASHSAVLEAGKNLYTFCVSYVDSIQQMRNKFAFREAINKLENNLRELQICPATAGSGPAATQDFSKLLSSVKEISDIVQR
Ras and Rab interactor 1/Tyrosine-protein kinase ABL1, sequence (Q13671 whole entry): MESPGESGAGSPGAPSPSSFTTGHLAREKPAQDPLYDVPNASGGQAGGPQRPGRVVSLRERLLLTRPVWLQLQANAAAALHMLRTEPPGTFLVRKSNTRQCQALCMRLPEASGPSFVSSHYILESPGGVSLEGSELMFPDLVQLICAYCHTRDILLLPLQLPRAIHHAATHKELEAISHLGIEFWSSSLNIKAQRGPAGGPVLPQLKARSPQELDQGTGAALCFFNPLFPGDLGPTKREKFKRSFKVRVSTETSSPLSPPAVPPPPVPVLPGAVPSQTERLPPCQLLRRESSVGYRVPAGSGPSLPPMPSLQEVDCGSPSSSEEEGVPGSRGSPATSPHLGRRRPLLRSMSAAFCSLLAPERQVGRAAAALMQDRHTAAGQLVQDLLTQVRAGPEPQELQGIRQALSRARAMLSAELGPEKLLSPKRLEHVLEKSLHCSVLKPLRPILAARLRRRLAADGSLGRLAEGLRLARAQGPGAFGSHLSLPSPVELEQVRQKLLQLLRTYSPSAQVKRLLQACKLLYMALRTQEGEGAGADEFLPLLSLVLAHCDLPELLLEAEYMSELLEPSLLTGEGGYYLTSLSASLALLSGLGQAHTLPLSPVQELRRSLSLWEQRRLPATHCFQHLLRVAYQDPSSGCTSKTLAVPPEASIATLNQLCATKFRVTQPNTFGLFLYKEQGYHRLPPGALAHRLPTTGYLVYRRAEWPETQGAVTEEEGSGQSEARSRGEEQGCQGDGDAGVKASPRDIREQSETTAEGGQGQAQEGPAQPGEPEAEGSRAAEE
Assay [6] concerns the target Sphingosine 1-phosphate receptor 2 (Homo sapiens, UniProt O95136). The assay is described as follows: Dose Response Cell Based Assay for Antagonists of the S1P2 Receptor. [Related pubchem assays: 856, 736 ]. The assay is classed as functional.
A further assay addresses T3, Caspase-3 (Homo sapiens, UniProt P42574).
T3 sequence (P42574 whole entry): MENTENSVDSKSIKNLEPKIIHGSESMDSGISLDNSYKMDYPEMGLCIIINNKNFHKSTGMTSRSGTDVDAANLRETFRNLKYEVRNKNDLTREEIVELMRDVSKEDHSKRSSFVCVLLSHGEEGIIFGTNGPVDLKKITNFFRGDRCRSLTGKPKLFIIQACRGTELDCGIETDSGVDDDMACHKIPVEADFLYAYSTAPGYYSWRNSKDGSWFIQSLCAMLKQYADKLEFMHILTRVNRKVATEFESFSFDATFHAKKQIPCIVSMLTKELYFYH
The assay is classed as functional.

Assay [7] concerns the target Tyrosyl-DNA phosphodiesterase 2 (Homo sapiens, UniProt O95551). The assay is described as follows: potency against TDP2 phosphodiesterase activity – biochemical, epi absorbance, IC50, dose response (AID 743297).
Assay [8] addresses T4, Sentrin-specific protease 6 (Homo sapiens, UniProt Q9GZR1).
T4 sequence (Q9GZR1 whole entry): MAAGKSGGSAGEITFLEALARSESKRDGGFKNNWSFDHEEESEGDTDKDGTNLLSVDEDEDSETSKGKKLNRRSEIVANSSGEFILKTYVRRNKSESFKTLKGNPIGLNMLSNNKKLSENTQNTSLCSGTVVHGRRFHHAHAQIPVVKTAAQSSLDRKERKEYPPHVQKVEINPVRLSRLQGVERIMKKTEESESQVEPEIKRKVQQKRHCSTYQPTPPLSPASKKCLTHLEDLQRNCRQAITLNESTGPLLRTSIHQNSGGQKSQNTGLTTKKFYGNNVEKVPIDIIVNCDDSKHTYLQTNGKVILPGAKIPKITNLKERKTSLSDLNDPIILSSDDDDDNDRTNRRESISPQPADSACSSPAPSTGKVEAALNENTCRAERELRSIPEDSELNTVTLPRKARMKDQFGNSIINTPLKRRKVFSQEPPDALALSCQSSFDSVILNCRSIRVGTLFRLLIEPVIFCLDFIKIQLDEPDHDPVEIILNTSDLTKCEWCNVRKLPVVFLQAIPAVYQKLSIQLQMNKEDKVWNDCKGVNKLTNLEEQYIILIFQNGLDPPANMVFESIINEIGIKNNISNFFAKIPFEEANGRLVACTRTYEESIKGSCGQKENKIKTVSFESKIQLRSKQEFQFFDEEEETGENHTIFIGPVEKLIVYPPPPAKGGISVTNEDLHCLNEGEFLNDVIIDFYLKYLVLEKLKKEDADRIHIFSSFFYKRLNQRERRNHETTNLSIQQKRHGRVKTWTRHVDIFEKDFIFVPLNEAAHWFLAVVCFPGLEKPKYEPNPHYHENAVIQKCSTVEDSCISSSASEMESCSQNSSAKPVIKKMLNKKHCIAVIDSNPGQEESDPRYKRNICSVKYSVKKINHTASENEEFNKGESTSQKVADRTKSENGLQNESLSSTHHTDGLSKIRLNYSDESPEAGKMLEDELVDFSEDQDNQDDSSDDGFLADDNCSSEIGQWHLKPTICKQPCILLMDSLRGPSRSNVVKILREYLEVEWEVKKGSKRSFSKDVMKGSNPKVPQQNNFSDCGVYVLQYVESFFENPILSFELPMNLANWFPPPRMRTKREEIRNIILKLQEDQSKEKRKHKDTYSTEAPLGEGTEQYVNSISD
The assay is classed as functional.

Assay [9] concerns the target T5, Sentrin-specific protease 8 (Homo sapiens, UniProt Q96LD8).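 Note: luminescence read-out of SENP8 inhibition, dose-response confirmation following an ultra-high-throughput screen.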
T5 sequence (Q96LD8 whole entry): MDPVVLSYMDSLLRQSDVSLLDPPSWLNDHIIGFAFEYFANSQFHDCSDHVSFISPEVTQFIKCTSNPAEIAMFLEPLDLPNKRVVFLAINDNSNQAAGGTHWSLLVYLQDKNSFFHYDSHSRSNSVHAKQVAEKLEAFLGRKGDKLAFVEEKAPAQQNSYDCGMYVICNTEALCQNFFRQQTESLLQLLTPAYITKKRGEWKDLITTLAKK
The assay is classed as functional.

Calls of active or inactive are those of the source.

Tyrosyl-DNA phosphodiesterase 2, sequence (O95551 whole entry): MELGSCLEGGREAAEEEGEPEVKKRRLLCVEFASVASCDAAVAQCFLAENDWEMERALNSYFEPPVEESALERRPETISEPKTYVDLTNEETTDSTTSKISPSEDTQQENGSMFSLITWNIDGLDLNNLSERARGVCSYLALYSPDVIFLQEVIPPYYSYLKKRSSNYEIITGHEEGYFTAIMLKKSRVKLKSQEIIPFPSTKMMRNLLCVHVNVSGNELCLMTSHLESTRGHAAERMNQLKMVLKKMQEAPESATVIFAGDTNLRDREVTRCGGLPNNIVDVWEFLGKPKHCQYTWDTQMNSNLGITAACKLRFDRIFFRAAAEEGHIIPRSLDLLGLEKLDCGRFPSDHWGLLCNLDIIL
Sphingosine 1-phosphate receptor 2, sequence (O95136 whole entry): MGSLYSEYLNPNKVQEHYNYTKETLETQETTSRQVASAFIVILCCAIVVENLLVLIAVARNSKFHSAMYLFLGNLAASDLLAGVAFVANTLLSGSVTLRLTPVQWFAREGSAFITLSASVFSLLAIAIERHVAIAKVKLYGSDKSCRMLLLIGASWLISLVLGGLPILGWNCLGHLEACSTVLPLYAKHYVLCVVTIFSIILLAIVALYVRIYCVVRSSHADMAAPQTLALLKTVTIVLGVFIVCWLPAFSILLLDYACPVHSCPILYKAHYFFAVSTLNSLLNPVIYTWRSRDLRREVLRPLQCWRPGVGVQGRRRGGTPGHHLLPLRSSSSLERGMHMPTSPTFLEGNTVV
Photoreceptor-specific nuclear receptor, sequence (Q9Y5X4 whole entry): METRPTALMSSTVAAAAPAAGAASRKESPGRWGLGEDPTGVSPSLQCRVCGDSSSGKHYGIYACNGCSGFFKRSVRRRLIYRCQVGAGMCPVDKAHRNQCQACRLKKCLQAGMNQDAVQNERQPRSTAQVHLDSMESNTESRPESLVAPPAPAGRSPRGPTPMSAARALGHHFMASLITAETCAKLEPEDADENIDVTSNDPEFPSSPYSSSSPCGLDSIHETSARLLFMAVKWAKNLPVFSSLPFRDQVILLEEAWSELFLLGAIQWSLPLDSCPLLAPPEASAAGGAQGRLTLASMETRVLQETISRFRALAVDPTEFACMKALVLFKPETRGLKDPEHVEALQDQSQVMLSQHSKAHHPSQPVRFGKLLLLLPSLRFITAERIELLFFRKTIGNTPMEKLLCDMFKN

The term EC50 denotes the concentration needed to bring the measured effect to its halfway point. Regarding `O=C1C=C(c2c(O)ccc3ccccc23)c2ccccc2C1=O`, in assay [1], the EC50 is > 99 µM (inactive).
In general, IC50 refers to the point on the concentration scale where inhibition reaches its midpoint. Consider `Cc1nc2c(=O)n(C)c(=O)nc-2n(C)n1`, for which the half-maximal inhibitory concentration (IC50) in assay [2] is > 39.8 µM (not active); in [3], > 39.8 µM (not active); in assay [5] it was 0.302 µM (active); in assay [6], 1.4 µM (active). Further, the EC50 is > 150 µM (not active) at Streptokinase A, 4.56 µM (active) in the assay with BJ and 0.821 µM (active) in assay [4].
Regarding `Oc1nc(Nc2ccccc2Cl)cc2ccccc12`, the IC50 is 4.42 µM (active) at Caspase-3, 28.4 µM (inactive) in assay [7], 3.14 µM (active) in assay [8] and 4.23 µM (active) in assay [9].
